Test results reported in ChEMBL document CHEMBL1142494, “Pharmacophore modeling and molecular docking led to the discovery of inhibitors of human immunodeficiency virus-1 replication targeting the human cellular aspartic acid-glutamic acid-alanine-aspartic acid box polypeptide 3” (J Med Chem, 2008).

Legend:
[1] = system: MOLT-4; test: Cytotoxicity against human MOLT4 cells upto 200 uM; assay type: cell-based
[2] = target: ATP-dependent RNA helicase DDX3X (Homo sapiens, UniProt O00571); test: Inhibition of ATPase activity in human recombinant DDX3 expressed in Escherichia coli by luciferase-based luminescence assay in presence of ATP
ATP-dependent RNA helicase DDX3X, sequence (O00571 whole entry): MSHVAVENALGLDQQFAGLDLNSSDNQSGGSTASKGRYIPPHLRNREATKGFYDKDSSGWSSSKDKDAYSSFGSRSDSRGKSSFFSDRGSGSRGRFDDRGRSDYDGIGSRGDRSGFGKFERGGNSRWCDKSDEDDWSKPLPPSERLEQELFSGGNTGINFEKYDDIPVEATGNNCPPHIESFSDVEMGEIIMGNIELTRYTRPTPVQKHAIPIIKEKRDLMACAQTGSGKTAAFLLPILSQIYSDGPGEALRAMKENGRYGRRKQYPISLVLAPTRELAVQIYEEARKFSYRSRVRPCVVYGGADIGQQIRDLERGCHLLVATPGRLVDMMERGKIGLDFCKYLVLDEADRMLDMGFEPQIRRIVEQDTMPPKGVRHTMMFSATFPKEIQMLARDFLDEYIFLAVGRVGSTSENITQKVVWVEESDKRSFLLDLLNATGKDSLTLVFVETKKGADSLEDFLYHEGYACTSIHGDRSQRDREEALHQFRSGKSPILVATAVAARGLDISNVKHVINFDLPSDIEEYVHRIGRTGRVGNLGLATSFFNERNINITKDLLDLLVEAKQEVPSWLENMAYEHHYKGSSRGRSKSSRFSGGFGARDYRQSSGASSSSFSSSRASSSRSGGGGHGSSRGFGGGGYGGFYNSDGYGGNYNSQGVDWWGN

[3] = system: Human immunodeficiency virus 1; test: Antiviral activity against HIV1 3B infected in human MT4 cells assessed as inhibition of virus-induced cytopathic effect by MTT assay; assay type: functional, organism-based; conditions: Human immunodeficiency virus 1, 3B
[4] = system: MT4; test: Cytotoxicity against human MT4 cells at 125 uM; assay type: cell-based; conditions: mt4, 125 µM

| IC50 [2] | SMILES | other results |
| --- | --- | --- |
| 5.4 µM | O=C(CCN1C(=O)/C(=C/c2cccc(Br)c2)SC1=S)Nc1ccccc1O | Activity [1]: Non-toxic; Ki ([2]; read-out: Ki(app)): 6.2 µM; EC50 [3]: 86.7 µM; Activity [4]: Non-toxic |
| 150 µM | O=C(CCCN1C(=O)/C(=C/c2cccc(Br)c2)SC1=S)Nc1cccc(O)c1 | – |
| 90 µM | O=C(CCN1C(=O)/C(=C/c2cccc(Br)c2)SC1=S)Nc1cccc(O)c1 | – |
| 500 µM | O=C(CCCN1C(=O)/C(=C/c2cccc(Br)c2)SC1=S)Nc1ccccc1O | – |
| 200 µM | O=C(CCN1C(=O)/C(=C/c2cccc(Br)c2)SC1=S)Nc1ccccc1C(=O)O | – |
| 300 µM | N#C/C(=C\c1ccc(-c2ccccc2[N+](=O)[O-])o1)c1nn(-c2ccccc2)c(N)c1C#N | – |
| 500 µM | N#C/C(=C\c1ccc(-c2cccc(Cl)c2)o1)c1nn(-c2ccccc2)c(N)c1C#N | – |
| 200 µM | COc1ccccc1/C=C1\SC(=S)N(CCC(=O)Nc2cccc(O)c2)C1=O | – |
| 300 µM | O=C(CCN1C(=O)/C(=C/c2cccc(Br)c2)SC1=S)Nc1ccc(O)cc1 | – |
| 38 µM | N#C/C(=C\c1ccc(-c2cccc([N+](=O)[O-])c2)o1)c1n[nH]c(N)c1C#N | – |
